{"source": "ChEMBL document CHEMBL3639084", "about": "“Heterocyclic analogs of propargyl-linked inhibitors of dihydrofolate reductase” (2014)", "molecular_target": "T1, Dihydrofolate reductase (Homo sapiens, UniProt P00374)", "T1 sequence (P00374 whole entry)": "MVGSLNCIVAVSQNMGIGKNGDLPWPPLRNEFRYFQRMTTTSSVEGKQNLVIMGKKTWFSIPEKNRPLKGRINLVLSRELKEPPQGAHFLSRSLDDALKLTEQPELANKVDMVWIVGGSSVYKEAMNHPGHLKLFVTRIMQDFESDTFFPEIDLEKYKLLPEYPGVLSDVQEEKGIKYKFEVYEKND", "assay": "Spectrophotometric Enzyme Assay: Compounds were evaluated in spectrophotometric enzyme assays using ChDHFR-TS and hDHFR. Inhibition constants (IC50) were measured (see Table 4). The lead compound, X, has an inhibition constant of 38 nM and modest selectivity (8-fold)."}
{"molecule": "COc1cc(-c2ccccc2C)ccc1C(C)C#Cc1c(C)nc(N)nc1N", "note": "(stereo unspecified)", "values": [{"measurement": "IC50", "result": 2.77, "unit": "µM"}]}
